According to patent US20260284016A1, “COMBINATIONS AND METHODS FOR ENHANCING CHECKPOINT INHIBITOR THERAPIES IN CANCER TREATMENT” (PURDUE RESEARCH FOUNDATION, priority 2004, published 2026):

Columns and labels:
[1] = system: peripheral blood mono nuclear cells (PBMCs); experiment: IL-6 in PBMC culture supernatant by ELISA; format: cell-based; conditions: 24 hours
Method: To evaluate the efficacy of TLR-7 agonists, Compound 1 (TLR7-TA), Compound 2 (TLR7-1B) and Compound 3 (TLR7-1C) were treated with peripheral blood mono nuclear cells (PBMCs) for 24 hours. TLR7-1 was used as control. Cell culture supernatant was isolated and tested for IL-6 using enzyme-linked immunosorbent assay (ELISA) (FIG. 22).

[2] = system: human primary monocyte-derived M2-macrophages; experiment: IL-6 and CXCL-10 induction in monocyte-derived M2-macrophages; format: cell-based; conditions: 48 hours

**Q.** What does the source list for `Nc1nc2ncc(CNc3ccc(C(=O)NC(CCC(=O)N[C@@H](CSSCCOC(=O)OCC4CCCN(CCNc5ccc(Cn6c(=O)[nH]c7c(N)nc(C(F)(F)F)cc76)cn5)C4)C(=O)O)C(=O)O)cc3)nc2c(=O)[nH]1` (stereo partly shown) [Compound 3]?
**A.** IL-6 in culture supernatant [1]: increased expression of IL-6; CXCL-10 induction compared to parent compound TLR7-1 [2]: more efficiently; IL-6 induction compared to parent compound TLR7-1 [2]: more efficiently; macrophage polarization (M1 markers IL-6, CXCL10) [2]: polarize the M2 macrophages to M1 macrophages
